The NIST ThermoML archive (doi:10.1016/j.jct.2011.02.011)
Where “and” joins values, the source holds several entries; their conditions need not be identical. Equal values may be shown once.

Details: Crystal, Calculated from knudsen effusion weight loss

[O-][n+]1ccccc1-c1ccccn1 [2,2'-bipyridyl N-oxide]
Details	vapor or sublimation pressure
319.17 K	5.02e-05 kPa and 4.83e-05 kPa and 4.82e-05 kPa
321.15 K	6.32e-05 kPa and 6.13e-05 kPa
323.16 K	7.8e-05 kPa and 8.26e-05 kPa and 7.96e-05 kPa
325.15 K	0.0001 kPa and 9.94e-05 kPa and 0.000102 kPa
327.14 K	0.000126 kPa and 0.000128 kPa and 0.000127 kPa
329.16 K	0.000163 kPa and 0.000161 kPa and 0.000162 kPa
331.13 K	0.000201 kPa and 0.000198 kPa and 0.0002 kPa
